Assay results from patent US20200179392A1, “Idelalisib for Treating Proliferative Vitreoretinopathy and Abnormal Intraocular Neovascularization” (priority 2016, published 2020).

Assays:
activation of Akt = assay: VEGF-induced activation of Akt; assay type: cell-based
HRECs [1] = assay: VEGF-induced tube formation assay in HRECs; assay type: cell-based, human; settings: idelalisib 5 μM
Experimental: A tube formation assay was performed as previously described^63. A collagen gel mixture was added to a 96-well plate (70 μl/well), which was then incubated for about 60 minutes at 37° C. to let the collagen gel polymerize. After polymerization, 4.0×10^4 HRECs were seeded in each well with their cultured medium maintained at a 37° C. incubator. This day was considered day 1. On day 2, the medium was removed and 150 μl of the gel mixture was added to each well supplemented with VEGF, or VEGF plus idelalisib (5 μM). On days 3, three different fields per well were randomly chosen and photographed using the EVOS FL Auto microscope. The results in FIG. 10B are representative of three independent experiments^61, 64, 65. Each bar graph indicates mean±standard deviation of three independent experiments. “*” denotes significant difference between the two compared groups. P<0.05 using an unpaired t-test.

[2] = system: PVR induced by RPEM cells; assay: Experimental PVR in rabbits; assay type: in vivo, rabbit
Experimental: PVR was induced in the right eyes of two to three-month-old Dutch Belted pigmented rabbits. Briefly, one week after gas vitrectomy, rabbits were intravitreally injected with platelet-rich plasma (PRP, 0.1 ml) and RPEM cells (300,000 cells) supplemented with either idelalisib (10 μM) or its vehicle (0.1% DMSO). Subsequently, the rabbits were examined at the indicated times and PVR stage was evaluated using a double blind approach with an indirect ophthalmoscope through a 30D lens, and then the PVR status for each rabbit was plotted (4A). The […] values are indicated at the top of the figure after a Mann-Whitney analysis. Representative rabbits on day 28 were examined by eletroretinography (ERG) (4B), optical coherence tomography (OCT) (4C) and histological analysis by hematoxylin & eosin stain (4D). The numbers in C and D (0, 2, 3, and 5) denote PVR stages in the examined rabbits. Single arrow points to the retina and double arrows point to cellular fibrotic membranes (4C). Arrowhead and double arrows indicate cellular membranes (4D).
As previously described^1, 55, PVR was induced in right eyes of two-three months old Dutch Belted rabbits purchased from Covance (Denver, Pa.). Briefly, a gas vitrectomy was performed by injecting 0.1 ml of perfluoropropane (C3F8) (Alcon, Fort Worth, Tex.) into the vitreous cavity 4 mm posterior to the corneal limbus. […]

[3] = system: phosphorylation of Akt at serine 473; assay: Western blot of Akt phosphorylation (S473) in RPEM cells stimulated with vitreous or PDGF; assay type: cell-based, human
Experimental: 1B. After growth factor-deprivation, the RPEM cells were pretreated with idelalisib at indicated concentrations, or its vehicle for 30 minutes, and then treated with normal rabbit vitreous diluted (1:2) in DMEM (RV), V: vehicle (0.1% dimethyl sulfoxide) or PDGF-B (10 ng/ml). After the treatment for 30 minutes at 37° C., their lysates were subjected to a western blot analysis using the indicated antibodies. This is representative of three independent experiments. Cells grown to 90% confluence in wells of 24-well plates were serum starved for 24 hours, and then treated with appropriated agents. After two washes with ice-cold phosphate buffered saline (PBS), the cells were lysed in 1× sample buffer diluted with protein extraction buffer (10 mM Tris-HCl, pH 7.4; 5 mM […] (EDTA), 50 mM NaCl, 50 mM NaF, 1% Triton X-100, 20 μg/ml aprotinin, 2 mM Na3VO4, 1 mM phenylmethylsulfonyl fluoride] from 5× sample buffer [25 mM EDTA, 10% sodium dodecyl sulfate (SDS), 500 mM dithiothreitol (DTT), 50% sucrose, 500 mM Tris.HCl (pH=6.8), 0.5% bromophenol blue). The samples were boiled for 5 minutes and then centrifuged for 5 minutes at 13,000×g, 4° C. […] Signal intensity was determined by densitometry using NIH imageJ software^24, 44, 50.

HRECs [4] = assay: VEGF-induced wound healing (migration) assay in HRECs; assay type: cell-based, human; settings: VEGF 20 ng/ml, idelalisib 5 μM, 18 hours
Experimental: A wound healing assay was performed as previously described^62 with minor modifications. Once cells reached 90% confluence in 48-well plates, they were starved for growth factors for 7 hours. A wound was created by scraping the cell monolayer with a sterile pipette tip (200 μl). The cells were washed twice to remove detached cells and then treated with VEGF (20 ng/ml) or VEGF plus idelalisib (5 μM). The wound was photographed at 18 hours post wounding with an EVOS FL Auto microscope (Thermo Scientific) as shown in 8B from three independent experiments^61.

RPEM cells = assay: Cell migration (scratch) assay, RPEM cells with vitreous; assay type: cell-based, human; settings: idelalisib 5 μM, 16 hours
Experimental: 3C. After the RPEM cells in a 12-well plate reached 90% confluence, the cultured wells were scratched with a 200 μl pipet tip and treated with RV supplemented with idelalisib (5 μM) or its vehicle. 16 hours later the pictures of the cells were taken and analyzed. A representative raw data of three experiments below the bar graphs is shown. Scale bar: 500 μm. RPEM cells in a 12-well plate were grown to near confluence, and then the wells with 90% confluent cells were scratched with 200 μl pipet tip. The cells were washed with PBS and treated with DMEM/F12 or RV (1:2 dilution in DMEM/F12) with or without idelalisib (5 μM). The scratched area was photographed to capture the initial width and photographed again 16 hours later. Analysis was conducted using Adobe Photoshop CS4 software. At least three independent experiments were performed.

## CC[C@H](Nc1ncnc2[nH]cnc12)c1nc2cccc(F)c2c(=O)n1-c1ccccc1 [idelalisib]
Activation of Akt
  effect on VEGF-induced activation of Akt: able to block
HRECs [1]
  effect on VEGF-stimulated tube formation of HRECs: completely blocked
[2]; idelalisib 10 μM intravitreal with PRP and RPEM cells
  rabbits developing to PVR stage 3: one of nine
[2]; idelalisib 10 μM intravitreal, days 7, 14, 21 and 28, Mann-Whitney
  effect on pathogenesis of PVR: significantly suppressed
[3]; idelalisib 1.0 μM, 30 min pretreatment, rabbit vitreous 1:2 for 30 min
  inhibition of vitreous-stimulated phosphorylation of Akt at serine 473: completely inhibited
[3]; idelalisib 10.0 μM (selective dose for PI3Kδ), PDGF-B 10 ng/ml
  inhibition of PDGF-stimulated activation of Akt: neither inhibited
HRECs [4]
  effect on VEGF-stimulated migration of HRECs: completely blocked
RPEM cells
  effect on vitreous-induced migration of RPEM cells: prevented
